The values that follow come from US11944623B2, “Modulators of Kv3 channels to treat pain” (Autifony Therapeutics Limited, priority 2015, dated 2024).

For the experiment, the target named is T1, human cloned Kv3.4 channels (Homo sapiens, UniProt Q03721).
T1 construct: expressed in transfected cells
T1 sequence (Q03721 1-635): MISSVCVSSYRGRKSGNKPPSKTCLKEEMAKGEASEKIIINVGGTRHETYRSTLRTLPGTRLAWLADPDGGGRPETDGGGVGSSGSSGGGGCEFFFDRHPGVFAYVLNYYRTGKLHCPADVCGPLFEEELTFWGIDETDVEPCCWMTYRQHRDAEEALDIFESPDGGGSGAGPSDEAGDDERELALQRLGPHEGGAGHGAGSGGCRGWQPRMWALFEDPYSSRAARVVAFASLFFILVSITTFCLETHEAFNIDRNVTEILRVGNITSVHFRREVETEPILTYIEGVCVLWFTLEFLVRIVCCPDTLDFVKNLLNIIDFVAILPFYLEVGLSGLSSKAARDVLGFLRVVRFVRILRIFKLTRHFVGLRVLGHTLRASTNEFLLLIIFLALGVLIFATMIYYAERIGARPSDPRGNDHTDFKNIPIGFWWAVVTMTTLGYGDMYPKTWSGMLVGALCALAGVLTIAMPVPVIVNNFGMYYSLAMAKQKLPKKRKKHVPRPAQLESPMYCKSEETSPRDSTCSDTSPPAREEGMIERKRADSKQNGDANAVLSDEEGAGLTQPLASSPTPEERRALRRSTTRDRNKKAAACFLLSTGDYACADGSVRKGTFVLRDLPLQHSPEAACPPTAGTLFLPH
Briefly: Kv3.4 Assay 1 (QPatch HT, HEK293). Type of experiment: cell-based. Particulars: 10 µM concentration (N=2). As to the method: The effect of compounds on human cloned Kv3.4 channels expressed stably in a HEK293 call line was evaluated at room temperature using the QPatch HT® (Sophion Bioscience A/S, Denmark), an automatic parallel patch clamp system. Compounds were evaluated at 10 μM in three cells. The duration of exposure to each test article concentration was 5 minutes.
In preparation for a recording session, intracellular solution was loaded into the intracellular compartments of the QPlate and cell suspension was pipetted into the extracellular compartments. After establishment of a whole-cell configuration, membrane currents were recorded using up to 48 parallel patch clamp amplifiers in the QPatch HT® system. The current records were sampled at 2000 Hz and low-pass Bessel filtered at 400 Hz.
Valid whole-cell recordings met the following criteria: • 1. Seal resistance (Rseal) ≥200 MΩ. • 2. Leak current 25% channel current.
In general terms: Patch clamp records ionic current or voltage across a cell membrane.

Consider `CC[C@@]1(C)NC(=O)N(c2cnc(Oc3ccc(C)c(OC(F)(F)F)c3)nc2)C1=O` [Compound 2, (5R)-5-ethyl-5-methyl-3-[2-({4-methyl-3-[(trifluoromethyl)oxy]phenyl}oxy)-5-pyrimidinyl]-2,4-imidazolidinedione], for which the “potentiation of the observed Kv3.4 current” value is given as “did not potentiate”.
